The subject of data set [1] is GFP+FoxP3+ regulatory T cells (iTregs). In words: RNA sequencing of GFP+FoxP3+ regulatory T cells differentiated with CPI-1205 or DMSO. In kind it is cell-based, mouse. To be noted: CPI-1205 vs DMSO. From the text:
(§1) FIGS. 5A-5C: Naïve T cells from FoxP3enhanced green fluorescent protein (eGFP) C57BL/6 mice that were differentiated into iTregs in the presence or absence of CPI-1205. GFP^+FoxP3^+ regulatory T cells were subsequently used for RNA sequencing analysis. (FIG. 5A) Ingenuity Pathway Analysis of RNA sequencing data of regulatory T cells differentiated in the presence of DMSO or CPI-1205. (FIG. 5B) Differentially expressed genes (DEGs) seen following differentiation of inducible regulatory T cells in presence of CPI-1205 or DMSO. (FIG. 5C) Luminex-based cytokine analysis of culture supernatant from inducible regulatory T cells following differentiation with CPI-1205 or DMSO. 2 tailed student t test was used to determine significance; NS, not significant. **p<0.01.
To understand CPI-1205-mediated molecular changes underlying the loss of suppressive activity of regulatory T cells, naïve murine T cells (CD4^+CD25^low CD44^low CD62^hi) from FoxP3-enhanced green fluorescent protein (eGFP) C57BL/6 mice were differentiated into iTregs in the presence or absence of CPI-1205. Purified GFP^+FoxP3^+ regulatory T cells were subsequently used for RNA sequencing analysis. […] The cytokine levels were subsequently examined in the culture supernatant of the iTregs that were differentiated with and without CPI-1205. […] CPI-1205 can also skew the phenotype of iTregs to pro-inflammatory cytokine producing effector-like T cells. In the study, it was noted that EZH2 inhibition leads to decreased expression of not only FoxP3 but also other critical genes, such as NRP1 and BACH2, which are required for regulatory T cell stability (16-18). CPI-1205 treated regulatory T cells seem to acquire the phenotype of so called “exFoxP3” cells which was previously shown to have an activated memory phenotype (Zhou et al., 2009).
In vitro T cell assays. Human peripheral regulatory T cells were isolated from peripheral blood mononuclear cells by enriching for CD4^+CD127^low CD25^+ cells using the EasySep Human Regulatory T Cell Isolation Kit (STEMCELL Technologies, Cambridge, Mass.). For mouse in vitro regulatory T cell differentiation, CD4^+CD25^low CD44^low CD62L^hinaïve splenic T cells were isolated from C57BL/6 mice using BD FACSAria (BD Biosciences, San Jose, Calif.). The cells were then differentiated in the presence of recombinant murine IL-2 (R&D, 402-ML), tumor growth factor-β (TGF-β, R&D 7666-MB), CPI-1205 or dimethyl sulfoxide (DMSO) and cultured for 6 days.
RNA sequencing. RNA was extracted from peripheral CD4 T cells isolated from patients with metastatic melanoma and from in vitro differentiated GFP^+ regulatory T cells. RNA sequencing reactions were performed by Active Motif (Carlsbad, Calif.) and Ocean Ridge Biosciences (Deerfield, Fla.) using an Illumina HiSeq 50-bp platform. For bioinformatics analysis, the raw reads were aligned to the mm10 reference genome using TopHat2. HTSeq count was used to count the raw reads that were uniquely mapped to each gene. DESeq2 was then applied to normalize the raw read counts and identify the differentially expressed genes between the groups. The beta-uniform mixture model was used to fit the p value distribution for multiple testing adjustments. The lists of differentially expressed genes were then used as input into Ingenuity Pathway Analysis for pathway analysis. RNA-sequencing data were deposited in the NCBI's Gene Expression Omnibus database.

The test system of data set [2] is inducible regulatory T cells. In words: Luminex-based cytokine analysis of iTreg culture supernatant. In kind it is cell-based, mouse. To be noted: iTregs differentiated with vs without CPI-1205; FIG. 5C.
Description: as §1
To understand CPI-1205-mediated molecular changes underlying the loss of suppressive activity of regulatory T cells, naïve murine T cells (CD4^+CD25^low CD44^low CD62^hi) from FoxP3-enhanced green fluorescent protein (eGFP) C57BL/6 mice were differentiated into iTregs in the presence or absence of CPI-1205. Purified GFP^+FoxP3^+ regulatory T cells were subsequently used for RNA sequencing analysis. […] The cytokine levels were subsequently examined in the culture supernatant of the iTregs that were differentiated with and without CPI-1205. […]

Data set [3] has as its system Nalm-6 target tumor cells. In words: T cell cytotoxicity assay. In kind it is cell-based, human. To be noted: in vitro. The procedure: T cell cytotoxicity assay was carried out using activated effector T cells (isolated with EasySep Human Naïve CD4^+ T Cell Isolation Kit and EasySep Human CD8^+ T Cell Enrichment Kit; STEMCELL Technologies). Purified naïve CD4 and total CD8 T cells were pre-activated with plate-bound anti-CD3/soluble anti-CD28 for 6 days in the presence or absence of CPI-1205. Activated T cells were then washed and challenged with Nalm-6 target tumor cells, then labeled with CellTrace violet to enable their subsequent discrimination from effector cells. The T cell:tumor cell co-cultures were conducted at different effector:target (E:T) ratios, in the presence of the blinatumomab antibody (10 ng/ml) and CPI-1205 for 20 hours as previously described (3). Target cell death was determined by summing the percentage of apoptotic (Annexin V^+) and dead or dying (7AAD+) target (CellTrace violet^+) cells after overnight culture.

Experimental findings from US20210260051A1, “COMBINATION OF EZH2 INHIBITOR AND CHECKPOINT THERAPY FOR THE TREATMENT OF CANCER” (Board of Regents, The University of Texas System, priority 2018, published 2021) are described below.

Molecules are shown by their SMILES.

For the compound `COc1cc(C)[nH]c(=O)c1CNC(=O)c1c(C)n([C@H](C)C2CCN(CC(F)(F)F)CC2)c2ccccc12` [CPI-1205, N-[(4-methoxy-6-methyl-2-oxo-1H-pyridin-3-yl)methyl]-2-methyl-1-[(1R)-1-[1-(2,2,2-trifluoroethyl)piperidin-4-yl]ethyl]indole-3-carboxamide], in data set [1] (FIG. 5A), the “pro-inflammatory pathways (Th-1/Th-2), Ingenuity Pathway Analysis” value is recorded as “upregulation”. Also, in data set [1] (FIG. 5B), the BACH2 expression result is “decreased”; the FoxP3 expression entry is on record as “decreased”; the “effector cytokines and chemokines (differentially expressed genes)” value is listed as “increase”; the “neuropilin 1 (NRP1) expression” value was “decreased”. The “pro-inflammatory cytokines in the culture supernatant” value in data set [2] was “significantly increased”. The “cytotoxicity of human effector T cells” value in data set [3] is given as “enhanced”.
